{"source": "patent US20080108655A1", "about": "“Drug composition and method for treating malaria and malignancy” (priority 2005, published 2008)", "key": {"[1]": {"system": "drug-resistant P. falciparum", "assay": "in vitro chemosensitization/resistance-reversal (C/RR) potency, strain not stated", "type": "cell-based", "procedure": "(§1) All in vitro studies were 72 hour growth inhibition assays, starting with 0.2% parasitemia, 2% hematocrit under standard culture conditions in 96 well microplates. Growth was quantified using the fluorescence-based assay developed in our lab (Smilkstein et al; Antimicrobial Agents and Chemotherapy 2004;48:1803-1806). EC50 determined by non-linear regression curve fitting (sigmoidal dose-response, variable slope equation) using GraphPad Prism software. Isobolograms and EC50,75 and 90 estimates computed using CalcuSyn software (Biosoft, T. C. Chou)."}, "[2]": {"conditions": "human, in vivo; cited from earlier work"}, "[3]": {"system": "drug-resistant P. falciparum", "conditions": "imipramine vs desipramine; amitriptyline vs nortriptyline; cited from earlier work"}, "[4]": {"conditions": "human, in vivo; cited from earlier work", "remark": "listed apart in the source"}, "[5]": {"system": "P. falciparum W2 (chloroquine-resistant)", "assay": "72 hour growth inhibition assay, fluorescence-based, strain W2", "type": "cell-based", "conditions": "fixed-ratio combinations, isobologram", "procedure": "as §1\n(§2) 2. […] In the following figures, fixed-ratio combinations of 2 drugs are made at the concentrations of each described in the figure legend (Fivelman, Adagu and Warhurst. Antimicrobial Agents and Chemotherapy 2004;48:4097-4102). Then, in quadruplicate, each of these combinations is diluted serially 2-fold, yielding one curve for each starting mixture. The data are expressed using the concentration of the antimalarial of interest on the X axis. […] In each starting combination, an increase of one drug is accompanied by a corresponding decrease in the other. As a result, overlapping curves indicate an additive relationship; a shift to the left, synergy; and a shift to the right, antagonism. • b. […]"}, "[6]": {"system": "P. falciparum D6 (CQ sensitive, mefloquine resistant)", "assay": "72 hour growth inhibition assay, fluorescence-based, strain D6", "type": "cell-based", "procedure": "as §1, §2"}, "[7]": {"system": "P. falciparum Dd2 (multidrug resistant)", "procedure": "as §1\n2. […] In the following figures, fixed-ratio combinations of 2 drugs are made at the concentrations of each described in the figure legend (Fivelman, Adagu and Warhurst. Antimicrobial Agents and Chemotherapy 2004;48:4097-4102). Then, in quadruplicate, each of these combinations is diluted serially 2-fold, yielding one curve for each starting mixture. The data are expressed using the concentration of the antimalarial of interest on the X axis. […] In each starting combination, an increase of one drug is accompanied by a corresponding decrease in the other. As a result, overlapping curves indicate an additive relationship; a shift to the left, synergy; and a shift to the right, antagonism. • b. One representative isobologram from each of the experiments is included to the right of the figure, showing lines predictive of EC50,75 and 90 if the combinations were additive in effect. Points falling to the lower left of the predictive lines indicate synergy; those on or near the line, additive effects."}, "CQ-resistant P. chabaudi": {"system": "CQ-resistant P. chabaudi", "conditions": "mice, drug alone"}}, "data": [{"smiles": "CN(C)CCC(c1ccc(Cl)cc1)c1ccccn1", "note": "(single isomer, unassigned; (-)) [(−)CP]", "values": [{"measurement": "C/RR activity", "setting": "[1]; in vitro", "value": "active"}]}, {"smiles": "CNCCCN1c2ccccc2CCc2ccccc21", "note": "[desipramine]", "values": [{"measurement": "typical serum concentrations in clinical use", "setting": "[2]", "value": "100 to 500", "unit": "nM"}, {"measurement": "resistance-reversal potency, dimethylamine vs monomethylamine pair", "setting": "[3]", "value": "no substantial difference"}]}, {"smiles": "CNCCC=C1c2ccccc2CCc2ccccc21", "note": "[nortriptyline]", "values": [{"measurement": "resistance-reversal potency, dimethylamine vs monomethylamine pair", "setting": "[3]", "value": "no substantial difference"}]}, {"smiles": "CN(C)CCC(c1ccc(Cl)cc1)c1ccccn1", "note": "(racemic) [chlorpheniramine]", "values": [{"measurement": "sedation as side effect", "setting": "[4]", "value": "consistently causes drowsiness"}, {"measurement": "C/RR potency of the (+/−) and (+) forms compared", "setting": "[1]; in vitro", "value": "equipotent"}, {"measurement": "typical serum concentrations in clinical use", "setting": "[2]", "value": "< 100", "unit": "nM"}]}, {"smiles": "CN(C)CCC=C1c2ccccc2CCc2ccccc21", "note": "[amitriptyline]", "values": [{"measurement": "resistance-reversal potency, dimethylamine vs monomethylamine pair", "setting": "[3]", "value": "no substantial difference"}]}, {"smiles": "CN(C)CCCN1c2ccccc2CCc2ccccc21", "note": "[imipramine]", "values": [{"measurement": "resistance-reversal potency, dimethylamine vs monomethylamine pair", "setting": "[3]", "value": "no substantial difference"}]}, {"smiles": "CN(C)CCC(c1ccc(Br)cc1)c1ccccn1", "note": "(stereo not drawn) [BP, brompheniramine]", "values": [{"measurement": "C/RR potency of the (+/−) and (+) forms compared", "setting": "[1]; in vitro", "value": "equipotent"}]}, {"smiles": "Cc1ccccc1C(OCCN(C)C)c1ccccc1", "note": "(racemic) [orphenadrine]", "values": [{"measurement": "interaction with CQ", "setting": "[5]", "value": "synergistic"}, {"measurement": "sedation as side effect", "setting": "[4]", "value": "does not typically cause sedation"}, {"measurement": "interaction with mefloquine", "setting": "[6]; D6, resistant to mefloquine", "value": "synergistic"}, {"measurement": "interaction with CQ", "setting": "[6]; D6, fixed-ratio combinations, isobologram", "value": "not against CQ sensitive D6"}, {"measurement": "effect on sensitivity to quinine or mefloquine", "setting": "[1]; strains resistant to those drugs", "value": "increases sensitivity to quinine or mefloquine"}, {"measurement": "interaction with mefloquine", "setting": "[7]; Dd2, resistant to mefloquine", "value": "synergistic"}, {"measurement": "interaction with quinine", "setting": "[7]; Dd2, resistant to quinine", "value": "synergistic"}, {"measurement": "interaction with CQ", "setting": "[7]; Dd2, fixed-ratio combinations, isobologram", "value": "synergistic"}, {"measurement": "parasitemia at completion of 4 treatment days", "setting": "CQ-resistant P. chabaudi", "value": "decreased parasitemia"}]}, {"smiles": "CN(C)CCC(c1ccccc1)c1ccccn1", "note": "(stereo not drawn) [pheniramine]", "values": [{"measurement": "sedation as side effect", "setting": "[4]", "value": "shares sedation as a side effect"}, {"measurement": "concentrations achieved in clinical use relative to BP or CP", "setting": "[2]", "value": "roughly 20 fold"}]}]}
